Measurements from paper PMC5352362, “Molecular and functional evaluation of a novel HIF inhibitor, benzopyranyl 1,2,3-triazole compound” (Oncotarget, 2016).

Columns and labels:
[1] = test system: hydroxylated (OH)-HIF-1α at P402 or P564, PHD2, HIF-1β; test: Western blot of hydroxylated HIF-1α, PHD2 and HIF-1β in A549 cells; type: cell-based, human; conditions: 1–100 nM, 16 h
Experimental: Figure 4 Compound 12 increased hydroxylation and proteasome-mediated degradation of HIF-1α (A) A549 cells were treated with Compound 12 (at concentrations of 0 nM, 1 nM, 10 nM, and 100 nM) for 16 h. Cells were fixed with paraformaldehyde; an immunofluorescence assay was then performed using anti-HIF-1α antibodies and Alexa Fluor 488-labeled secondary antibodies (green). Nuclei were stained with DAPI. N, normoxia; H, hypoxia. (B) A549 cells were treated with Compound 12 (10 nM concentration) and exposed to hypoxic conditions for 16 h. Cells were immediately treated with cycloheximide (CHX, 100 μg/mL) for the time indicated, and HIF-1α protein levels were determined by western blotting. β-actin was used as an internal control. Half-life (t1/2) of HIF-1α protein was determined using relative expression levels of HIF-1α. (C) A549 cells were treated with Compound 12 (at concentrations of 0 nM, 1 nM, 10 nM, and 100 nM) for 16 h. The expression levels of HIF-1α, hydroxylated (OH)-HIF-1α at P402 or P564, and PHD2 were determined via western blotting using specific antibodies. N, normoxia; H, hypoxia. (D) A549 cells were transfected with two kinds of small interfering RNAs targeting PHD2 and then treated with Compound 12 under hypoxic exposure for 16 h. Cell lysates were immunoblotted with an anti-HIF-1α and PHD2 antibody. (E) After A549 cells were treated with Compound 12 for 16 h, cells were treated with MG132 (20 μM) for 4 h. Cell lysates were immunoprecipitated (IP) with anti-HIF-1α antibody, and were then immunoblotted (IB) with anti-ubiquitin antibody. Relative levels of ubiquitinated HIF-1α were quantified and graphed. […]
Proteins extracted from cells using PRO-PREP (iNtRon Biotech, South Korea) were separated by SDS-PAGE and transferred to a nitrocellulose membrane (Whatman, Maidstone, UK). […] Antibody binding was detected using an enhanced chemiluminescence (ECL) kit (BioRad, Hercules, CA) according to the manufacturer's instructions. […]

HIF-1α = HIF-1α (Homo sapiens, UniProt Q16665); test: Western blot of HIF-1α protein in hypoxic HEK-293 cells; type: cell-based; conditions: HEK293, 1 nM, hypoxia 16 h, read-out: downregulation of HIF-1α protein expression
Sequence of HIF-1α (Q16665 whole entry): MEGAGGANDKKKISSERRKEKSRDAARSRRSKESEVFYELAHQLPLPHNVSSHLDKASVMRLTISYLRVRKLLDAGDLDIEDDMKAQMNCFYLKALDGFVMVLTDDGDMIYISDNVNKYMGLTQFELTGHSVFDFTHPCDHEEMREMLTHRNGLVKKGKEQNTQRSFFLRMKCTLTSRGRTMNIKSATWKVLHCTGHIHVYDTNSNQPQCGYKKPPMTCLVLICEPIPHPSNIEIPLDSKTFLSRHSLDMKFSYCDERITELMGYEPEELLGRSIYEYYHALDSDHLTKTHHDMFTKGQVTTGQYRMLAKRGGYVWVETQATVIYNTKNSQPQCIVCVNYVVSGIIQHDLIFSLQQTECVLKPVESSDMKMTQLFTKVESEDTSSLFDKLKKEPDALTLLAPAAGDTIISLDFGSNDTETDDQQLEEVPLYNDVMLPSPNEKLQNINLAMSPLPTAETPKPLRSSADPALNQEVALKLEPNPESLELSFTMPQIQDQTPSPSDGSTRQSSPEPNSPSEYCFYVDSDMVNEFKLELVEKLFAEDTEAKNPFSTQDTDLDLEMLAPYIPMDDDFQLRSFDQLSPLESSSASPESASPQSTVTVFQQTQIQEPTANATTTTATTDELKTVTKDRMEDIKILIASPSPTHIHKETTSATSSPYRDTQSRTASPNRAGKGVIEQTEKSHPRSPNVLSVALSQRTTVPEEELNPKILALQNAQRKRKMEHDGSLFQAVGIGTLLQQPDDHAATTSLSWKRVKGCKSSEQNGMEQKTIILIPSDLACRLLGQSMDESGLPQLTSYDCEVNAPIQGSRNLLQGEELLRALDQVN
Experimental: (B, C) After HEK-293 cells (B) and A549 cells (C) were treated with Compound 12 (at concentrations of 0 nM, 0.1 nM, 1 nM, 10 nM, 100 nM, and 1000 nM) under hypoxic conditions for 16 h, expression of HIF-1α was determined by western blot analysis and then graphed. (D, E) Half maximal inhibitory concentration (IC50) values were calculated using GraphPad Prism software, using the quantified HIF-1α levels determined in B and C.
HEK-293 cells and A549 cells were treated with Compound 12, at 0.1–1000 nM concentrations, under hypoxic conditions for 16 h.
Proteins extracted from cells using PRO-PREP (iNtRon Biotech, South Korea) were separated by SDS-PAGE and transferred to a nitrocellulose membrane (Whatman, Maidstone, UK). Membranes were blocked with 5% skim milk in Tris-buffered saline (TBS) containing 0.1% Tween-20 for 30 min at room temperature (RT). After blocking, membranes were incubated with specific primary antibodies overnight at 4°C, followed by incubation with horseradish peroxidase-conjugated mouse- or rabbit-IgG for 1 h at RT. Antibody binding was detected using an enhanced chemiluminescence (ECL) kit (BioRad, Hercules, CA) according to the manufacturer's instructions. […]

inhibition at 0.001 µM (HIF-1α): ~30%
Structure (SMILES): COc1ccc(-c2cn(CC3(C)C=Cc4cc([N+](=O)[O-])ccc4O3)nn2)cc1 (stereo not shown) [Compound 12, 4-(4-methoxyphenyl)-1-((2-methyl-6-nitro-2H-chromen-2-yl)methyl)-1H-1,2,3-triazole]
HIF-1β expression [1]: did not inhibit | PHD2 levels [1]: increased even at the lowest dose (1 nM) | hydroxylation of HIF-1α (P402, P564) [1]: increased hydroxylation of HIF-1α in a dose-dependent manner
